# Laboratory results published in paper PMC3760808, “A New Approach to Control the Enigmatic Activity of Aldose Reductase” (PLoS ONE, 2013).
# Tests used:
# purified bovine lens AR [1] = target: T1, purified bovine lens AR (Bos taurus, UniProt P16116); assay: AR inhibition screening with GAL and HNE as substrates (differential inhibition); format: biochemical; conditions: for GAL/HNE differential inhibition (percentage inhibition with GAL minus percentage inhibition with HNE): 0.11 mM GAL vs 0.11 mM HNE, at inhibitor concentration giving 50% inhibition or maximal concentration tested; for inhibitory action on all the tested substrates (in words): substrates GAL, HNE, glucose (and GS-HNE), Figure 4
# T1 construct: AR was purified from bovine lens to electrophoretic homogeneity as described; from tissue; host or cells: bovine lens
# Description: (§1) If not otherwise specified AR activity was determined at 37°C using 4.7 mM D, L-GAL as a substrate in 0.25 M sodium phosphate buffer pH 6.8 containing 0.38 M ammonium sulfate, 0.5 mM EDTA, and 0.2 mM NADPH. AR was purified from bovine lens to electrophoretic homogeneity as described. […] One unit of enzyme activity is the amount of enzyme that catalyzes the oxidation of 1 µmol of NADPH/min under the above-mentioned conditions. The k cat values were obtained on the basis of a molecular weight of AR of 34 KDa. The purified enzyme was stored at 4°C in a 10 mM sodium phosphate buffer pH 7.0 supplemented by 2 mM dithiothreitol and was extensively dialyzed against a 10 mM sodium phosphate buffer pH 7.0 before use.
# The nominal concentrations of HNE and GS-HNE solutions used as substrates of AR were determined through a colorimetric assay. […] When testing inhibitors that require DMSO to be solubilized, the same concentration of DMSO (0.7% v/v), was used in the assays both in the presence and absence of the inhibitors.
# Thus, the susceptibility of AR to the inhibition exerted by a series of compounds (including some well-known ARIs) was tested at various inhibitor concentrations, using both GAL and HNE as substrates. The results of this screening (Figure 2) are expressed as ”GAL/HNE differential inhibition”, i.e. the difference between the percentage inhibition observed using GAL as a substrate and the percentage inhibition observed using HNE as a substrate. This differential inhibition was calculated at the concentration of the inhibitor leading to 50% inhibition or, when 50% inhibition was not reached, at the maximal concentration tested.
# Bars indicate the difference between the percentage inhibition observed using 0.11 mM GAL as substrate and the percentage inhibition using 0.11 mM HNE (differential inhibition). The difference was calculated at the concentration of the inhibitor leading to a 50% inhibition of the reaction more sensitive to the inhibitor (i.e. the reduction of GAL for compounds displaying a positive differential inhibition and the reduction HNE for compounds displaying a negative differential inhibition) or at the maximal concentration tested if 50% inhibition was not reached. […] Framed numbers (1 to 30) refer to the compounds tested as inhibitors.
# purified bovine lens AR [2] = target: T1, purified bovine lens AR; assay: AR inhibition with GS-HNE as substrate; format: biochemical
# Description: as §1, with “The purified enzyme was stored at 4°C in a 10 mM sodium phosphate buffer pH 7.0 supplemented by 2 mM dithiothreitol and was extensively dialyzed against a 10 mM sodium phosphate buffer pH 7.0 before use.” left out
# The nominal concentrations of HNE and GS-HNE solutions used as substrates of AR were determined through a colorimetric assay. These values were confirmed by the total decrease in absorbance at 340 nm measured, in the presence of 0.2 mM NADPH, when HNE and GS-HNE were incubated in the presence of 8 and 150 mU of AR, respectively (Figure S1). […]
# Figure 3 Effect of D-glyceramide as differential AR inhibitor. Percentage residual activity was determined at various inhibitor concentrations using the following substrates: 0.11 mM of HNE (squares), GAL (diamonds), GS-HNE (circles) or 7 mM D-glucose (triangles). […]
# Figure 5 Effect of compounds acting as differential AR inhibitors. Percentage residual activity was determined at various inhibitor concentrations using the following substrates: 0.11 mM HNE (squares), GAL (diamonds), GS-HNE (circles) or 7 mM D-glucose (triangles). […]
# purified bovine lens AR [3] = target: T1, purified bovine lens AR; assay: AR inhibition with D-glucose as substrate; format: biochemical
# Description: as §1
# (§2) The nominal concentrations of HNE and GS-HNE solutions used as substrates of AR were determined through a colorimetric assay. These values were confirmed by the total decrease in absorbance at 340 nm measured, in the presence of 0.2 mM NADPH, when HNE and GS-HNE were incubated in the presence of 8 and 150 mU of AR, respectively (Figure S1). When testing inhibitors that require DMSO to be solubilized, the same concentration of DMSO (0.7% v/v), was used in the assays both in the presence and absence of the inhibitors.
# Figure 3 Effect of D-glyceramide as differential AR inhibitor. Percentage residual activity was determined at various inhibitor concentrations using the following substrates: 0.11 mM of HNE (squares), GAL (diamonds), GS-HNE (circles) or 7 mM D-glucose (triangles). Error bars represent the standard deviations from at least three independent measurements.
# Figure 5 Effect of compounds acting as differential AR inhibitors. Percentage residual activity was determined at various inhibitor concentrations using the following substrates: 0.11 mM HNE (squares), GAL (diamonds), GS-HNE (circles) or 7 mM D-glucose (triangles). Panels a and b refer to compounds 18 and 19, respectively. Error bars represent the standard deviations from at least three completely independent measurements including different enzyme preparations. […]
# bovine lens AR = target: T2, bovine lens AR (Bos taurus, UniProt P16116); assay: Kinetic parameters of substrate reduction by AR (double reciprocal plots); format: biochemical; conditions: 8 mU purified AR, pH 6.8, 37°C
# T2 construct: AR was purified from bovine lens to electrophoretic homogeneity as described; from tissue; host or cells: bovine lens
# Description: as §1, §2
# Figure 1 Double reciprocal plots for reduction of GAL, HNE and GS-HNE by bovine lens AR. Double reciprocal plots of initial rate measurements using of GAL (diamonds), HNE (squares) and GS-HNE (circles) as substrates. The assays were performed in standard conditions using 8 mU of purified AR. Error bars represent the standard deviations from at least three independent measurements.
# human skeletal muscle AR = system: human skeletal muscle AR; parameters: method as in PMID 9890881, PMID 7599164; conditions: human skeletal muscle enzyme; cited from earlier work
# [4] = system: human placental recombinant AR; parameters: method as in PMID 9890881, PMID 7599164; conditions: human placental recombinant enzyme; cited from earlier work
# AR from bovine lens = system: AR from bovine lens; parameters: method as in PMID 8554593, PMID 9445372; conditions: pH 6.0; cited from earlier work
# AR from bovine heart = system: AR from bovine heart; parameters: method as in PMID 8554593, PMID 9445372; conditions: pH 6.0; cited from earlier work
smiles,measurement,setting,value
"CC(/C=C1\SC(=S)N(CC(=O)O)C1=O)=C\c1ccccc1 [Compound 30, Epalrestat]",IC50,purified bovine lens AR [1],0.0005 mM
"NC(=O)[C@H](O)CO [Compound 21, D-Glyceramide]",IC50,"purified bovine lens AR [1]; GAL as substrate, read-out: IC50 with GAL as substrate",~10 mM
same,IC50,"purified bovine lens AR [2]; 0.11 mM GS-HNE as substrate, read-out: IC50, reduction of GS-HNE",~8 mM
same,differential inhibition glucose/HNE (in words),"purified bovine lens AR [3]; 7 mM D-glucose vs 0.11 mM HNE, Figure 3",observed only at rather high concentrations
"NC(=O)[C@H](O)[C@@H](O)[C@H](O)[C@H](O)CO [Compound 26, D gluconamide, reference compound]",GAL/HNE differential inhibition (percentage inhibition with GAL minus percentage inhibition with HNE),purified bovine lens AR [1],significant
same,effect on glucose reduction,purified bovine lens AR [3]; data not shown,no effect
O=c1cc(-c2ccccc2)nc2cccc(O)n12 [Compound 3],inhibitory action on all the tested substrates (in words),purified bovine lens AR [1],inhibits the AR catalyzed reduction of all the tested substrates
O=C(O)c1cn(Cc2ccccc2)c2ccnn2c1=O [Compound 18],inhibition of the AR catalyzed reduction of GS-HNE (in words),"purified bovine lens AR [2]; 0.11 mM GS-HNE, Figure 5","able to inhibit, to a different extent"
same,"type of inhibition, glucose reduction","purified bovine lens AR [3]; 47 µM inhibitor, double reciprocal plots",competitive inhibition
"CCCCCC(O)/C=C/C=O (stereo not drawn) [HNE, 4-hydroxy-2,3-nonenal]",Km,bovine lens AR,37 ± 1 µM
same,k cat,bovine lens AR,0.8 ± 0.017 s⁻¹
same,Km,human skeletal muscle AR,22 µM
same,Km,[4],28 ± 9 µM
same,Km,AR from bovine lens,8.8 ± 0.9 µM
same,Km,AR from bovine heart,7 ± 2 µM
"O=C1NC(=O)[C@@]2(CCOc3ccc(F)cc32)N1 [Compound 29, Sorbinil]",GAL/HNE differential inhibition (percentage inhibition with GAL minus percentage inhibition with HNE),purified bovine lens AR [1],negligible
same,inhibitory action on all the tested substrates (in words),purified bovine lens AR [1],potent inhibitory action on all the tested substrates
"O=C[C@@H](O)CO [GAL, D, L-glyceraldehyde]",Km,bovine lens AR,39 ± 4 µM
same,k cat,bovine lens AR,0.783 ± 0.05 s⁻¹
"CCCCCC(O)C(CC=O)SC[C@H](NC(=O)CC[C@H](N)C(=O)O)C(=O)NCC(=O)O (stereo partly drawn) [GS-HNE, 3-glutathionyl-4-hydroxy-nonanal]",Km,bovine lens AR,105 ± 6 µM
same,k cat,bovine lens AR,0.683 ± 0.033 s⁻¹
